Test results taken from paper PMC11822212, “High-throughput screening identifies Aurora kinase B as a critical therapeutic target for Merkel cell carcinoma” (Nature Communications, 2025).
Several values for one entry are separate records, joined by “and”; a condition that tells them apart may be missing. Identical values can stand only once. Counter-ions that a name gives are not always drawn. Like-named read-outs stand apart in the source and are kept apart here.

How the values were obtained:
MKL-2 cells (VP-MCC) = assay: qHTS cell viability (CellTiter-Glo, 72 h; primary and follow-up small molecule screen); type: cell-based, human
NIH-3T3 cells = assay: qHTS cell viability (CellTiter-Glo, 72 h; primary screen), control cell line; type: cell-based, mouse
[1] = system: VN-MCC cell lines (MCC13, MCC26, UISO); assay: qHTS cell viability, VN-MCC cell lines as a group (mean AUC, VN.MCC.avg); type: cell-based, human
MCC26 cells (VN-MCC) = assay: qHTS cell viability (CellTiter-Glo, 72 h; primary and follow-up small molecule screen); type: cell-based, human
MKL-1 cells (VP-MCC) = assay: as above; type: cell-based, human
[2] = system: six MCC cell lines and four control cell lines; assay: qHTS cell viability, all 10 cell lines screened; type: cell-based
HEK293T cells = assay: qHTS cell viability (CellTiter-Glo, 72 h; primary screen), control cell line; type: cell-based, human
MCC13 cells (VN-MCC) = assay: qHTS cell viability (CellTiter-Glo, 72 h; primary and follow-up small molecule screen); type: cell-based, human
WAGA cells (VP-MCC) = assay: as above; type: cell-based, human
[3] = system: VP-MCC cell lines (WAGA, MKL-1, MKL-2); assay: qHTS cell viability, VP-MCC cell lines as a group (mean AUC, VP.MCC.avg); type: cell-based, human
HACAT cells = assay: qHTS cell viability (CellTiter-Glo, 72 h; primary screen), control cell line; type: cell-based, human
UISO cells (VN-MCC) = assay: qHTS cell viability (CellTiter-Glo, 72 h; primary and follow-up small molecule screen); type: cell-based, human
CRL-7250 cells = assay: qHTS cell viability (CellTiter-Glo, 72 h; primary screen), control cell line; type: cell-based
[4] = system: control cell lines (HACAT, HEK293T, CRL-7250, NIH-3T3); assay: qHTS cell viability, control cell lines as a group (mean AUC, Control.avg); type: cell-based
[5] = system: MCC cell lines (WAGA, MKL-1, MKL-2, MCC13, MCC26, UISO); assay: qHTS cell viability, all six MCC cell lines as a group (mean AUC, MCC.avg); type: cell-based, human
[6] = NPC library, qHTS dose-response AUC, MKL2
[7] = NPC library, qHTS dose-response AUC, NIH3T3 control
[8] = NPC library, mean AUC of VN-MCC cell lines
[9] = NPC library, therapeutic window: Control avg AUC minus VN-MCC avg AUC
[10] = NPC library, qHTS dose-response AUC, MCC26
[11] = NPC library, qHTS dose-response AUC, MKL1
[12] = NPC library, therapeutic window: Control avg AUC minus MCC avg AUC
[13] = NPC library, qHTS dose-response AUC, HEK293T control
[14] = NPC library, qHTS dose-response AUC, MCC13
[15] = NPC library, qHTS dose-response AUC, WAGA
[16] = NPC library, mean AUC of VP-MCC cell lines
[17] = NPC library, therapeutic window: Control avg AUC minus VP-MCC avg AUC
[18] = NPC library, qHTS dose-response AUC, HACAT control
[19] = NPC library, qHTS dose-response AUC, UISO
[20] = NPC library, qHTS dose-response AUC, CRL7250 control
[21] = NPC library, mean AUC of control cell lines
[22] = NPC library, mean AUC of six MCC cell lines

Row | SMILES | MKL2_AUC (MKL-2 cells (VP-MCC); [6]) | NIH3T3_AUC (NIH-3T3 cells; [7]) | VN-MCC_Avg_AUC [1, 8] | Control-VN-MCC [1, 9] | MCC26_AUC (MCC26 cells (VN-MCC); [10]) | MKL1_AUC (MKL-1 cells (VP-MCC); [11]) | Control-MCC [2, 12] | HEK293T_AUC (HEK293T cells; [13]) | MCC13_AUC (MCC13 cells (VN-MCC); [14]) | WAGA_AUC (WAGA cells (VP-MCC); [15]) | VP-MCC_Avg_AUC [3, 16] | Control-VP-MCC [3, 17] | HACAT_AUC (HACAT cells; [18]) | UISO_AUC (UISO cells (VN-MCC); [19]) | CRL7250_AUC (CRL-7250 cells; [20]) | Control_Avg_AUC [4, 21] | MCC_Avg_AUC [5, 22] | other results
1 | CCCCCCCCCCCCCCCC[N+](C)(C)CC [Ethylhexadecyldimethylammonium bromide] | 235.245 | 447.34 | 431.999 | -72.525 | 497.964 | 275.727 | 16.8967 | 340.309 | 452.398 | 248.495 | 253.156 | 106.318 | 288.244 | 345.634 | 362.003 | 359.474 | 342.577 | Area under the dose-response curve (AUC) MKL-2 Replicate 1 (MKL-2 cells (VP-MCC); follow-up screen, MKL-2, replicate 1): 333.8; Area under the dose-response curve (AUC) MKL-2 Replicate 2 (MKL-2 cells (VP-MCC); follow-up screen, MKL-2, replicate 2): 320.4; Area under the dose-response curve (AUC) MKL-2 Replicate 3 (MKL-2 cells (VP-MCC); follow-up screen, MKL-2, replicate 3): 334.2; Area under the dose-response curve (AUC) MCC26 Replicate 1 (MCC26 cells (VN-MCC); follow-up screen, MCC26, replicate 1): 420.1; Area under the dose-response curve (AUC) MCC26 Replicate 2 (MCC26 cells (VN-MCC); follow-up screen, MCC26, replicate 2): 377.6; Area under the dose-response curve (AUC) MCC26 Replicate 3 (MCC26 cells (VN-MCC); follow-up screen, MCC26, replicate 3): 430.8; Area under the dose-response curve (AUC) MKL-1 Replicate 1 (MKL-1 cells (VP-MCC); follow-up screen, MKL-1, replicate 1): 317.9; Area under the dose-response curve (AUC) MKL-1 Replicate 2 (MKL-1 cells (VP-MCC); follow-up screen, MKL-1, replicate 2): 305.9; Area under the dose-response curve (AUC) MKL-1 Replicate 3 (MKL-1 cells (VP-MCC); follow-up screen, MKL-1, replicate 3): 330.7; Area under the dose-response curve (AUC) MCC13 Replicate 1 (MCC13 cells (VN-MCC); follow-up screen, MCC13, replicate 1): 444.8; Area under the dose-response curve (AUC) MCC13 Replicate 2 (MCC13 cells (VN-MCC); follow-up screen, MCC13, replicate 2): 473.1; Area under the dose-response curve (AUC) MCC13 Replicate 3 (MCC13 cells (VN-MCC); follow-up screen, MCC13, replicate 3): 416.6; Area under the dose-response curve (AUC) WAGA Replicate 1 (WAGA cells (VP-MCC); follow-up screen, WAGA, replicate 1): 383.4; Area under the dose-response curve (AUC) WAGA Replicate 2 (WAGA cells (VP-MCC); follow-up screen, WAGA, replicate 2): 363.0; Area under the dose-response curve (AUC) WAGA Replicate 3 (WAGA cells (VP-MCC); follow-up screen, WAGA, replicate 3): 382.5; Area under the dose-response curve (AUC) UISO Replicate 1 (UISO cells (VN-MCC); follow-up screen, UISO, replicate 1): 324.1; Area under the dose-response curve (AUC) UISO Replicate 2 (UISO cells (VN-MCC); follow-up screen, UISO, replicate 2): 364.3; Area under the dose-response curve (AUC) UISO Replicate 3 (UISO cells (VN-MCC); follow-up screen, UISO, replicate 3): 313.9
2 | Cn1c(=O)c2c(ncn2CCO)n(C)c1=O [Etofylline] | 336.333 | 458.11 | 441.93 | 21.1816 | 435.802 | 387.045 | 54.9761 | 445.08 | 458.423 | 399.645 | 374.341 | 88.7707 | 491.237 | 431.565 | 458.019 | 463.112 | 408.136 | –
3 | Cl.Cl.Fc1ccc(C(OCCN2CCN(CCCc3ccccc3)CC2)c2ccc(F)cc2)cc1 [GBR 12909 dihydrochloride] | 375.344 | 436.091 | 408.55 | 35.8586 | 404.643 | 403.123 | 43.7909 | 425.616 | 436.239 | 399.59 | 392.686 | 51.7231 | 461.158 | 384.769 | 454.771 | 444.409 | 400.618 | –
4 | COc1ccc2c3c1O[C@H]1[C@@H](O)C=C[C@H]4[C@@H](C2)N(C)CC[C@@]341 [Codeine hydrochloride] | – | – | – | – | – | – | – | – | – | – | – | – | – | – | – | – | – | MKL2_AUC (MKL-2 cells (VP-MCC)): 316.851; NIH3T3_AUC (NIH-3T3 cells): 465.288 and 465.287; Control-VN-MCC [1]: 68.4482; VN-MCC_Avg_AUC [1]: 391.354; MCC26_AUC (MCC26 cells (VN-MCC)): 404.512; MKL1_AUC (MKL-1 cells (VP-MCC)): 362.385; Control-MCC [2]: 90.9174; HEK293T_AUC (HEK293T cells): 441.34; MCC13_AUC (MCC13 cells (VN-MCC)): 404.155; WAGA_AUC (WAGA cells (VP-MCC)): 360.01; Control-VP-MCC [3]: 113.387; VP-MCC_Avg_AUC [3]: 346.415; HACAT_AUC (HACAT cells): 474.439; UISO_AUC (UISO cells (VN-MCC)): 365.394; CRL7250_AUC (CRL-7250 cells): 458.141; Control_Avg_AUC [4]: 459.802; MCC_Avg_AUC [5]: 368.884
